Test results reported in ChEMBL document CHEMBL1909046, “DrugMatrix in vitro pharmacology data”.

Assays:
[1] = target: Acetylcholinesterase (Homo sapiens, UniProt P22303); assay: DRUGMATRIX: Acetylcholinesterase enzyme inhibition (substrate: acetylthiocholine); type: cell-based, HEK293; details: hek293; Not Active = under 50% inhibition at 10 µM
[2] = target: Prostaglandin G/H synthase 1 (Homo sapiens, UniProt P23219); assay: biochemical; type: tissue-based, Platelet;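 further: inhibition of COX-1 enzyme activity, with arachidonic acid supplied as substrate; in other assays of this panel Not Active means under 50% inhibition at 10 µM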
[3] = DRUGMATRIX: Nicotinic Acetylcholine radioligand binding (ligand: [125I] Epibatidine); type: cell membranes, Membrane; details: imr-32; Not Active = under 50% inhibition at 10 µM
[4] = target: T1, C-C chemokine receptor type 4 (Homo sapiens, UniProt P51679); type: cell membranes, Chem-1, Membrane; details: chem-1; further: in other assays of this panel Not Active means under 50% inhibition at 10 µM
T1 sequence (P51679 whole entry): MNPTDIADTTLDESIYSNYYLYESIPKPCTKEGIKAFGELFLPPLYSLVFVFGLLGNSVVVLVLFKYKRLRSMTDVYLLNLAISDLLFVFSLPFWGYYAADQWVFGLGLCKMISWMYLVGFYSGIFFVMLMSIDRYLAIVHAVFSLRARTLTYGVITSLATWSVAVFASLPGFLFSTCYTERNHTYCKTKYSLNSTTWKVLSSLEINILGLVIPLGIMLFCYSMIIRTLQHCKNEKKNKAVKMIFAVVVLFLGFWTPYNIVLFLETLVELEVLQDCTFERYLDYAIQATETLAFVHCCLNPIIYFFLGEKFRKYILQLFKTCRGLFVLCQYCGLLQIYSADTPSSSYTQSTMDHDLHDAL

[5] = target: T2, Substance-K receptor (Homo sapiens, UniProt P21452); type: cell membranes, CHO, Membrane; details: cho; further: in other assays of this panel Not Active means under 50% inhibition at 10 µM
T2 sequence (P21452 whole entry): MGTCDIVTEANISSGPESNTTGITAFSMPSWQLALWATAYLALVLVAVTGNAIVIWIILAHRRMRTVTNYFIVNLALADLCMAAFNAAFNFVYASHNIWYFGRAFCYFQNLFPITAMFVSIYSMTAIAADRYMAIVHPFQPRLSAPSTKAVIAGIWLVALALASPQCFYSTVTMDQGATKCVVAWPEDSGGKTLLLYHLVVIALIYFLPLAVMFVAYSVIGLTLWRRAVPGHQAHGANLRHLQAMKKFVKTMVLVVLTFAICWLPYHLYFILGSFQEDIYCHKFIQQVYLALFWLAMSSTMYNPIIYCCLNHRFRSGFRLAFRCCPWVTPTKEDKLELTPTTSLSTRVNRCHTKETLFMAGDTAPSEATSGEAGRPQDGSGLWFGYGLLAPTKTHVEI

[6] = target: T3, Neuropeptide Y receptor type 1 (Homo sapiens, UniProt P25929); type: cell membranes, Membrane; details: sk-n-mc; further: in other assays of this panel Not Active means under 50% inhibition at 10 µM
T3 sequence (P25929 whole entry): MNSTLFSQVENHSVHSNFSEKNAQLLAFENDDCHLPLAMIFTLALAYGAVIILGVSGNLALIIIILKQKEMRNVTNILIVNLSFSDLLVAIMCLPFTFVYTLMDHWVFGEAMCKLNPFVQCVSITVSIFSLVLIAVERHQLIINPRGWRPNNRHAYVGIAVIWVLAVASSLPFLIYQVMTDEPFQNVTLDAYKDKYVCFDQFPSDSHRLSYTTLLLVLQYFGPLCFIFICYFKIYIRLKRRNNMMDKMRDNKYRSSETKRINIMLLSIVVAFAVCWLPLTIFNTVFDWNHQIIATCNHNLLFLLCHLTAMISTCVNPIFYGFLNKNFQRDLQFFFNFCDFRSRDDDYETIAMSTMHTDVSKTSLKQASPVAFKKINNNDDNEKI

[7] = DRUGMATRIX: Glutamate, Kainate radioligand binding (ligand: [3H] Kainic acid); type: cell membranes, Rattus norvegicus, Wistar, Brain, Membrane; details: Not Active = under 50% inhibition at 10 µM

Sequence of Acetylcholinesterase (P22303 whole entry): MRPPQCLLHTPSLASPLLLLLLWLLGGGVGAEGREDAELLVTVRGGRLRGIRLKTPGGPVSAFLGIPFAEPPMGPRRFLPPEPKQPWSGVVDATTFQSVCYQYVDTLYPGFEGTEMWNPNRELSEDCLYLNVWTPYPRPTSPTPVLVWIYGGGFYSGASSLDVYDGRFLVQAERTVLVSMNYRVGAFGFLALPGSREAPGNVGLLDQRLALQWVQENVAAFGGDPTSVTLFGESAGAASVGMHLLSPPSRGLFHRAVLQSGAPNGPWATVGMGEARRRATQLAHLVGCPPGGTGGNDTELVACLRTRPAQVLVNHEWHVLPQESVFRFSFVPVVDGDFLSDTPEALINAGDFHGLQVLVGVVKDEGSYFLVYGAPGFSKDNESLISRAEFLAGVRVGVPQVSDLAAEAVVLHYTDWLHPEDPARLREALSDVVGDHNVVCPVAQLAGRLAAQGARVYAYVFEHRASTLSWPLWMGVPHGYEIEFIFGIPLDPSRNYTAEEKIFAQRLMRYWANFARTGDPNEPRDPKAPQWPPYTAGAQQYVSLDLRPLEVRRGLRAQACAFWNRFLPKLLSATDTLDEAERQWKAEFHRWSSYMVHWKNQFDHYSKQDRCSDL
Sequence of Prostaglandin G/H synthase 1 (P23219 whole entry): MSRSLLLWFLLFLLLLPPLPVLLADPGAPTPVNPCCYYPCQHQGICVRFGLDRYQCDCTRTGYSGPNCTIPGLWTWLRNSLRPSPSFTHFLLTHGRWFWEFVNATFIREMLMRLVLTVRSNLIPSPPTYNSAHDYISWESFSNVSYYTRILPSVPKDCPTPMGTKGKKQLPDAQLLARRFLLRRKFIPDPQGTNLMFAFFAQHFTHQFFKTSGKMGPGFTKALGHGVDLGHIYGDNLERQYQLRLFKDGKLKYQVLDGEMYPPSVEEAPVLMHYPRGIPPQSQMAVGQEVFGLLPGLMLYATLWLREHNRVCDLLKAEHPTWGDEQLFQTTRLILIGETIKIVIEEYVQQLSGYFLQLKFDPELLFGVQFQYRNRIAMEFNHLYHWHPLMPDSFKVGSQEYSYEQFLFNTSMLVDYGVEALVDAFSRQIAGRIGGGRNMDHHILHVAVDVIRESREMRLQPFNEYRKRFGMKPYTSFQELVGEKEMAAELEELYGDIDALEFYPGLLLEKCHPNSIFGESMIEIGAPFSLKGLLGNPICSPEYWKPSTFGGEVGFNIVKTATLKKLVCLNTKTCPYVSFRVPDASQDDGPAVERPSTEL

| SMILES | IC50 [1] | IC50 ([2]; platelet) | IC50 [3] | Ki [3] | IC50 [4] | IC50 [5] | IC50 [6] | IC50 [7] | Ki [7] | IC50 ([2]; read-out: IC50) |
| --- | --- | --- | --- | --- | --- | --- | --- | --- | --- | --- |
| CC[C@@]1(O)C(=O)OCc2c1cc1n(c2=O)Cc2cc3c(CN(C)C)c(O)ccc3nc2-1 [TOPOTECAN] | Not Active | Not Active | Not Active | Not Active | Not Active | Not Active | Not Active | Not Active | Not Active |  |
| C#C[C@]1(O)CC[C@H]2[C@@H]3[C@H](C)CC4=C(CCC(=O)C4)[C@H]3CC[C@@]21C [TIBOLONE] | Not Active | Not Active | Not Active | Not Active | Not Active | Not Active | Not Active | Not Active | Not Active |  |
| Oc1ccc(/C=C/c2cc(O)cc(O)c2)cc1 [RESVERATROL] | Not Active |  | Not Active | Not Active | Not Active | Not Active | Not Active | Not Active | Not Active |  |
| Cc1ccc(Cl)c(Nc2ccccc2C(=O)O)c1Cl [MECLOFENAMIC ACID] | Not Active |  | Not Active | Not Active | Not Active | Not Active | Not Active | Not Active | Not Active | 203 nM |
| Cc1ccnc(NS(=O)(=O)c2ccc(N)cc2)n1 [SULFAMERAZINE] | Not Active | Not Active | Not Active | Not Active | Not Active | Not Active | Not Active | Not Active | Not Active |  |
| CCOc1cc(N)c(Cl)cc1C(=O)NCC1CN(Cc2ccc(F)cc2)CCO1 (configuration not stated) [MOSAPRIDE] | Not Active | Not Active | Not Active | Not Active | Not Active | Not Active | Not Active | Not Active | Not Active |  |
| C[C@]12CCC(=O)C[C@@H]1CC[C@@H]1[C@@H]2CC[C@]2(C)[C@@H](O)CC[C@@H]12 [STANOLONE] | Not Active | Not Active | Not Active | Not Active | Not Active | Not Active | Not Active | Not Active | Not Active |  |
| C[N+]1(C)[C@@H]2C[C@@H](OC(=O)[C@H](CO)c3ccccc3)C[C@H]1[C@@H]1O[C@@H]12.[Br-] [METHSCOPOLAMINE BROMIDE] | Not Active | Not Active | Not Active | Not Active | Not Active | Not Active | Not Active | Not Active | Not Active |  |
| OC[C@@H](O)[C@@H](O)[C@H](O)[C@H](O)CO [MANNITOL] | Not Active | Not Active | Not Active | Not Active | Not Active | Not Active | Not Active | Not Active | Not Active |  |
| O=C(O)c1cc(/N=N/c2ccc(S(=O)(=O)Nc3ccccn3)cc2)ccc1O [SULFASALAZINE] | Not Active | Not Active | Not Active | Not Active | Not Active | Not Active | Not Active | Not Active | Not Active |  |
| CC1=C(/C=C/C(C)=C/C=C/C(C)=C/C(=O)O)C(C)(C)CCC1 [TRETINOIN] | Not Active | Not Active | Not Active | Not Active | Not Active | Not Active | Not Active | Not Active | Not Active |  |
| CC[C@H](C)C(=O)O[C@H]1CCC=C2C=C[C@H](C)[C@H](CC[C@@H]3C[C@@H](O)CC(=O)O3)[C@H]21 [MEVASTATIN] | Not Active | Not Active | Not Active | Not Active | Not Active | Not Active | Not Active | Not Active | Not Active |  |
